The target in one test is T1, MRSA Pyk (Staphylococcus aureus, UniProt Q6GG09).
T1 construct: made in house; host or cells: E. coli BL-21 (DE3)
Briefly: MRSA pyruvate kinase (PK) activity, continuous LDH-coupled assay. It counts as biochemical, methicillin resistant S. aureus (MRSA252). The text has this:
Genomic DNA of MRSA strain Sanger 252 extracted using DNeasy Tissue Kit™ (Qiagen™) was used as a template to generate the His-tagged MRSA PK. Human cDNA from MCF-7 breast cancer cell line (courtesy of Dr. J Wong, BC Cancer Research Center (Vancouver, Canada)) was used as a template to generate the full-length human M2 PK enzyme. The following primer sets were used creating appropriate restriction sites (NdeI and XhoI sites underlined): For cloning of MRSA PK: M27F 5′-[…]-3′ and M27R 5′-[…]-3′, for cloning of human M2 PK isoform: hM2F 5′-[…]-3′ and hM2R 5′-[…]-3′. The resulting PCR fragments for each construct were cloned into the NdeI and XhoI unique sites of the bacterial expression vector pET-28a (+) (Novagen™). […] The sequence and the correct reading frame of all constructs were verified by sequencing. Human M1, R and L PK constructs in pET-28-a(+) vectors (courtesy of Dr. L. Cantley, Harvard Medical, School (Boston, USA)) were used to generate relevant recombinant His-tagged human PK isoforms.
MRSA and human constructs in pET-28a(+) were used to express relevant recombinant PK proteins in E. coli BL-21 (DE3). The proteins were expressed and purified using Ni-NTA agarose (Qiagen™) according to the manufacturer's protocol. Briefly, cells were grown to an absorbance of 0.4-0.5 at 600 nm in 2×YT medium, then induced with 0.1 mM IPTG for 3 h at 20° C. Cells were lysed by sonication on ice (3×10-s bursts with a 30-s recovery between bursts) in lysis buffer (0.2 mg/ml lysozyme, 50 mM Tris pH 7.5, 10 mM MgCl2, 200 mM NaCl, 100 mM KCl, 10% glycerol, 10 mM imidazole, 0.5% NP-40 and 1 mM DTT containing Complete™ protease inhibitor). Cell lysates were cleared by centrifugation (18,000×g in a Beckman™ JA-20 rotor) for 20 min at 4° C. and PK isoforms were purified by batch binding to Ni-NTA resin. The resins were then packed in columns (1×2 cm) and washed with 400 column volumes lysis buffer containing 30 mM imidazole. His-tagged PK isoforms were eluted with the same buffer containing 300 mM imidazole. The proteins were dialyzed overnight at 4° C. against 2000 volumes of ice-cold 30 mM Tris pH 7.5, 25 mM KCl, 5 mM MgCl2, 10% glycerol and 1 mM DTT to remove imidazole. All purification steps were done at 4° C.; enzymes were flash-frozen and stored at −70° C. Enzymatic activity of frozen protein preparations was stable for at least 10 months and up to 5 freeze/thaw cycles. Purity and physical integrity of proteins were assessed using SDS-polyacrylamide gel electrophoresis (SDS-PAGE) followed by coomassie blue staining. Protein concentration was estimated by Bradford assay (Bio-Rad Protein Assay™) using bovine serum albumin as a standard.
Candidate MRSA PK inhibitors were assayed for their ability to inhibit enzymatic activities of MRSA and human PKs. PK activity was determined using a continuous assay coupled to lactate dehydrogenase (LDH) in which the change in absorbance at 340 nm owing to oxidation of NADH was measured using a Benchmark Plus™ microplate spectrophotometer (Bio-Rad Laboratories, Hercules, Calif.). […] Reactions were initiated by the addition of 15 nM of one of the PK enzymes. PK activity proportional to the rate of change at 340 nm was expressed as specific activity (μmol/min/mg), which is defined as the amount of PK that catalyzes the formation of one micromole of either product per minute. Inhibitors were dissolved in DMSO with the final concentration of the solvent never exceeding 1% of the assay volume. IC50 values were calculated by curve fitting on a four-parameter dose-response model with variable slope using Graphpad Prism 5.0™ (GraphPad™ Software Inc., La Jolla, Calif.). In all studies, less than 10% of total PEP was exhausted during the reaction. Reactions were performed at 30° C. for up to 5 min. All values determined represent at least two measurements, in triplicate (Tables 1-6) or duplicate unless mentioned otherwise. […]

In another test the test system is S. aureus (ATCC29213). Briefly: In vitro susceptibility, broth microdilution (MIC). It counts as cell-based. The note with it: Staphylococcus aureus; S. aureus ATCC29213; 18-24 h, 37 C; read-out: Antimicrobial activity (MIC) S. aureus ATCC29213. The text has this: Epidemic methicillin resistant S. aureus (MRSA) strain sequenced at the Sanger Centre (MRSA252, NRS71) was obtained from NARSA (Network on Antimicrobial Resistance in S. aureus). Methicillin sensitive S. aureus (ATCC 29213 and 25923), methicillin resistant S. aureus (ATCC BAA-1762), and Salmonella typhimurium (ATCC BAA-185) were obtained from ATCC, The Global Bioresource Center. Acinetobacter baumannii (ATCC 19606 and ATCC 17978), Klebsiella pneumonia (C238), vancomycin resistant Enterococci #2 (2010A) (VRE#2), MRSA (USA400, MW2) and Pseudomonas aeruginosa (PA0-1) were obtained from the laboratory of Dr B. B. Finlay at the University of British Columbia (Vancouver, Canada).
The antimicrobial activities of PK inhibitor candidates were determined using the 96-well microtiter standard 2-fold serial broth microdilution method as described by CLSI (formerly NCCLS) with the various gram-positive and gram-negative bacteria species mentioned above. Bacteria from a single colony were grown, overnight in either BHI Broth (VRE), mueller hinton broth (S. aureus 29213; MRSA USA400, A. baumannii 19606, MRSA BAA-1762) or L-broth (P. aeruginosa, S. typhimurium, K. pneumonia and A. baumannii 17978). […] Culture plates were incubated for 18-24 h at 37° C., and optical density at 600 nm (OD600) was measured using a Benchmark Plus™ microplate spectrophotometer (Bio-Rad™). The absorbance control values for the series containing CAMHB and inhibitor were subtracted as background from the corresponding infected wells. Minimal inhibitory concentration (MIC) was defined as the lowest concentration of test compound leading to complete inhibition of cell growth in relation to compound-free control wells as determined by optical density. Vancomycin, methicillin and ciprofloxicin were used as reference compounds. All assays were run in triplicate or duplicate. Experiments were replicated at least twice to verify reproducibility using the above conditions.
(In general: In broth dilution the organism is exposed to a series of concentrations in liquid medium.)

≈ marks a conversion by molar mass, not a printed value.

The values below come from US20180312493A1, “Antibiotic Compounds, Pharmaceutical Formulations Thereof And Methods And Uses Therefor” (Simon Fraser University, priority 2015, published 2018).

T1 sequence (Q6GG09 whole entry): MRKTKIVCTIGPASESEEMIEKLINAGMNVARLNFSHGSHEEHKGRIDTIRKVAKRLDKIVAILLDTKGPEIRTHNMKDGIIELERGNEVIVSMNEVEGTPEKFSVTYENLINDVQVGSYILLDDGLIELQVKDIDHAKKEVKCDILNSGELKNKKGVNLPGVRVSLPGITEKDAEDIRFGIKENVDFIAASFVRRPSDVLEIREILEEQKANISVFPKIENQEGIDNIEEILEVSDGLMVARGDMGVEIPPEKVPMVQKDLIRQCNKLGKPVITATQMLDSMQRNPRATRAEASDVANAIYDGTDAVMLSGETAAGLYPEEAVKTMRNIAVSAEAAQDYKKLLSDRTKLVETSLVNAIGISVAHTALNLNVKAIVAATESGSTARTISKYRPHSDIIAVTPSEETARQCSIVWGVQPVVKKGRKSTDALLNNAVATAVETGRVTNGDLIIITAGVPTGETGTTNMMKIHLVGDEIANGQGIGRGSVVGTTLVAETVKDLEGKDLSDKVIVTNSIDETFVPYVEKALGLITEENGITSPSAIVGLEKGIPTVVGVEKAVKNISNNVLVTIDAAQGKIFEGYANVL

For orientation: IC50 means the midpoint of a concentration-inhibition curve. Low values mean greater potency in that assay, high ones weaker potency in that assay. The MIC is the lowest concentration found to suppress growth. As for `ON=C(c1c(/C=C/c2ccc(Cl)cc2)[nH]c2cc(Br)ccc12)C(F)(F)F` (racemic) [Compound 19, 1-(6-Bromo-2-(4-chlorostyryl)-1H-indol-3-yl)-2,2,2-trifluoroethanone Oxime], the IC50 against MRSA Pyk was 100 to 1000 nM. Besides, the MIC with S. aureus (ATCC29213) came out at 0.5 µg/mL (≈ 1.13 µM).
In the same order, the values of `ON=C(c1c(CCc2ccc(Cl)cc2)[nH]c2cc(Br)ccc12)C(F)(F)F` (racemic) [Compound 46, 1-(6-Bromo-2-(4-chlorophenethyl)-1H-indol-3-yl)-2,2,2-trifluoroethanone Oxime] are over 1000 nM and 1 µg/mL (≈ 2.24 µM).
In the same order, the values of `O=C(c1c(/C=C/c2ccc(Cl)cc2)[nH]c2cc(Br)ccc12)C1CCOCC1` [Compound 1, (E)-(6-Bromo-2-(4-chlorostyryl)-1H-indol-3-yl)(tetrahydro-2H-pyran-4-yl)methanone] are under 100 nM and over 64 µg/mL.
In the case of `O=C(c1c(/C=C/c2ccc(Cl)cc2)[nH]c2cc(Br)ccc12)C1CC1` [Compound 2, (E)-(6-Bromo-2-(4-chlorostyryl)-1H-indol-3-yl)(cyclopropyl)methanone], the IC50 at MRSA Pyk was under 100 nM. In the test on S. aureus (ATCC29213), the MIC was found to be 2 µg/mL (≈ 4.99 µM).
On MRSA Pyk, `O=C(c1ccccc1)c1c(/C=C/c2ccc(Cl)cc2)[nH]c2cc(Br)ccc12` [Compound 3, (E)-(6-Bromo-2-(4-chlorostyryl)-1H-indol-3-yl)(phenyl)methanone] registered a half-inhibitory concentration (IC50) of under 100 nM. Besides, the MIC in the test on S. aureus (ATCC29213) is 16 µg/mL (≈ 36.6 µM).
The corresponding values for `O=C(c1c(CCc2ccc(Cl)cc2)[nH]c2cc(Br)ccc12)C1CCOCC1` [Compound 4, (6-Bromo-2-(4-chlorophenethyl)-1H-indol-3-yl)(tetrahydro-2H-pyran-4-yl)methanone] are under 100 nM and 8 µg/mL (≈ 17.9 µM).
In the same order, the values of `O=C(O)C(F)(F)C(F)(F)C(=O)c1c(/C=C/c2ccc(Cl)cc2)[nH]c2cc(Br)ccc12` [Compound 5, (E)-4-(6-Bromo-2-(4-chlorostyryl)-1H-indol-3-yl)-2,2,3,3-tetrafluoro-4-oxobutanoic Acid] are under 100 nM and 32 µg/mL (≈ 63.4 µM).
In the same order, the values of `CN1CCN(CCC(=O)c2c(/C=C/c3cn4ccccc4n3)[nH]c3cc(Br)ccc23)CC1` [Compound 8, (E)-1-(6-Bromo-2-(2-(imidazo[1,2-a]pyridin-2-yl)vinyl)-1H-indol-3-yl)-3-(4-methylpiperazin-1-yl)propan-1-one] are 100 to 1000 nM and 64 µg/mL (≈ 130 µM).
Consider `CN(C)CCC(=O)c1c(/C=C/c2cn3ccccc3n2)[nH]c2cc(Br)ccc12` [Compound 9, (E)-1-(6-Bromo-2-(2-(imidazo[1,2-a]pyridin-2-yl)vinyl)-1H-indol-3-yl)-3-(dimethylamino)propan-1-one], for which, on MRSA Pyk, the IC50 lay in the range of 100 to 1000 nM. Moreover, the MIC with S. aureus (ATCC29213) came out at 32 µg/mL (≈ 73.2 µM).
For the compound `O=C(CCN1CCOCC1)c1c(/C=C/c2cn3ccccc3n2)[nH]c2cc(Br)ccc12` [Compound 10, (E)-1-(6-Bromo-2-(2-(imidazo[1,2-a]pyridin-2-yl)vinyl)-1H-indol-3-yl)-3-morpholinopropan-1-one], the half-maximal inhibitory concentration (IC50) against MRSA Pyk was 100 to 1000 nM. Moreover, the MIC with S. aureus (ATCC29213) was over 64 µg/mL.
The corresponding values for `OC(c1c(/C=C/c2ccc(Cl)cc2)[nH]c2cc(Br)ccc12)(C(F)(F)F)C(F)(F)F` [Compound 13, (E)-2-(6-Bromo-2-(4-chlorostyryl)-1H-indol-3-yl)-1,1,1,3,3,3-hexafluoropropan-2-ol] are 100 to 1000 nM and 1 µg/mL (≈ 2.01 µM).
In the same order, the values of `OC(c1c(CCc2ccc(Cl)cc2)[nH]c2cc(Br)ccc12)(C(F)(F)F)C(F)(F)F` [Compound 14, 2-(6-Bromo-2-(4-chlorophenethyl)-1H-indol-3-yl)-1,1,1,3,3,3-hexafluoropropan-2-ol] are 100 to 1000 nM and 1 µg/mL (≈ 2 µM).
The corresponding values for `OC(c1c(/C=C/c2ccc(Cl)cc2)[nH]c2cc(Br)ccc12)C(F)(F)F` (stereo not drawn) [Compound 16, (E)-1-(6-Bromo-2-(4-chlorostyryl)-1H-indol-3-yl)-2,2,2-trifluoroethanol] are under 100 nM and 1 µg/mL (≈ 2.32 µM).
At MRSA Pyk, `OC(c1c(CCc2ccc(Cl)cc2)[nH]c2cc(Br)ccc12)C(F)(F)F` (stereo not drawn) [Compound 17] returned an IC50 of 100 to 1000 nM. Moreover, the MIC in the test on S. aureus (ATCC29213) turned out to be 2 µg/mL (≈ 4.62 µM).
In the same order, the values of `CC(O)(c1c(/C=C/c2ccc(Cl)cc2)[nH]c2cc(Br)ccc12)C(F)(F)F` (stereo not drawn) [Compound 18, (E)-2-(6-Bromo-2-(4-chlorostyryl)-1H-indol-3-yl)-1,1,1-trifluoropropan-2-ol] are under 100 nM and 1 µg/mL (≈ 2.25 µM).
On MRSA Pyk, `O=C(NCCN1CCOCC1)c1c(/C=C/c2ccc(Cl)cc2)[nH]c2cc(Br)ccc12` [Compound 29, (E)-6-Bromo-2-(4-chlorostyryl)-N-(2-morpholinoethyl)-1H-indole-3-carboxamide] yielded an IC50 of over 1000 nM.
Still for that read-out and setting: for `O=C(NCc1cccnc1)c1c(/C=C/c2ccc(Cl)nc2)[nH]c2cc(Br)ccc12` [Compound 37, (E)-6-Bromo-2-(2-(6-chloropyridin-3-yl)vinyl)-N-(pyridin-3-ylmethyl)-1 H-indole-3-carboxamide] the value was 100 to 1000 nM; for `COc1ccc(CCc2[nH]c3cc(Br)ccc3c2CCO)nc1` [Compound 71, 2-(6-Bromo-2-(2-(5-methoxypyridin-2-yl)ethyl)-1H-indol-3-yl)ethanol], over 1000 nM.
At MRSA Pyk, `CN(C)CCNC(=O)c1c(NCc2ccc(Cl)cc2)[nH]c2cc(Br)ccc12` [Compound 83, 6-bromo-2-(4-chlorobenzylamino)-N-(2-(dimethylamino)ethyl)-1H-indole-3-carboxamide] gave an IC50 of over 1000 nM.
The same measure, in the same setting: for `CC(=O)OCC(=O)Nc1c(CCc2ccc(Cl)cc2)[nH]c2cc(Br)ccc12` [Compound 97, 2-(6-Bromo-2-(4-chlorophenethyl)-1H-indol-3-ylamino)-2-oxoethyl Acetate] the value was over 1000 nM.
Still for that read-out and setting: the result for `O=C(NCCCO)c1c(-c2cc3cc(Cl)ccc3[nH]2)[nH]c2cc(Br)ccc12` [Compound 133, 6-Bromo-5′-chloro-N-(3-hydroxypropyl)-1H,1′H-[2,2′-biindole]-3-carboxamide] reads under 100 nM.
